Data published in patent publication US8163709B2, “TAK1-D mediated induction of cell death in human cancer cells by specific sequence short double-stranded RNAS” (Board of Regents of the University of Texas System, priority 2008, dated 2012).
Entries after “also recorded” stand apart in the source; their conditions may differ.

What was measured:
NF-κB = NF-κB activation in H460 cells (EMSA, IKKα/β phosphorylation); format: cell-based, human; details: hours after transfection (3 h, 6 h)
Procedure: EMSA. Electrophoretic mobility shift assays for NFκB were performed as described previously (Kurland et al., 2001) using 3.5 μg of nuclear protein for each reaction.
FIG. 16B illustrates the effect of dominant-negative TAK1-D/K63W on dsRNA si5 induced cell death. […] As a slight growth inhibition of si5 transfected H460-K63W cells can be observed in FIG. 16B it is interesting to ask whether this is caused by an incomplete suppression of TAK1-D activity or by activation of other dsRNA-dependent stress pathways. To answer this question, the activation of the transcription factor NF-κB by dsRNA si5 was tested, as it well established that dsRNA triggered activation of PKR (Zamanian-Daryoush et al., 2000), TLR3 (Jiang et al., 2003), and RIG1/Mda-5 (Hiscott et al., 2006) leads to a downstream activation of NF-κB.

p38 = p38 activation in mouse peritoneal macrophages; format: cell-based; details: 4 h
Procedure: It has been reported (Dempsey et al., 2000) that the splicing variant D of TAK1 could not be detected in many cell lines despite its expression in the parental tissue, most probably due to downregulation of the transcript during in vitro culture. Therefore, the inventors used macrophages 24 h after obtaining them from athymic NCR-NU/NU female mice by peritoneal lavage.

TAK1-D/TAB1 complex = target: T1, TAK1-D/TAB1 complex (Homo sapiens, UniProt O43318); assay: In vitro kinase assay with purified FLAG-TAK1-D/His-TAB1; format: biochemical; details: purified proteins, cell-free
T1 construct: made in house; host or cells: HeLa cells
T1 sequence (O43318 1-491 isoform O43318-4): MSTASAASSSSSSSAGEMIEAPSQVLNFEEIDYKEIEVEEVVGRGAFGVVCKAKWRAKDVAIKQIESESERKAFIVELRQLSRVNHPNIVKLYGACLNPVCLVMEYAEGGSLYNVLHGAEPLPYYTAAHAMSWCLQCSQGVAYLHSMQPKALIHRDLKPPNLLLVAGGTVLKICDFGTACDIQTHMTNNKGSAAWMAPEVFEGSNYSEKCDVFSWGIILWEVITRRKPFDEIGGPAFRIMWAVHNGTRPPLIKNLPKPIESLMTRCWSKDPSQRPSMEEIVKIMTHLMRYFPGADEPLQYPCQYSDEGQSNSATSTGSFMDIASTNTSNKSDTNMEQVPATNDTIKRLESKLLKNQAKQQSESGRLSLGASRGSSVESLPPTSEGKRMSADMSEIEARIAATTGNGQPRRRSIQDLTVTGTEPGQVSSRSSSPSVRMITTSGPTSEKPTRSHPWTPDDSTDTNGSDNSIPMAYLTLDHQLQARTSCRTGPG
T1 sequence (Q15750 1-504 partner): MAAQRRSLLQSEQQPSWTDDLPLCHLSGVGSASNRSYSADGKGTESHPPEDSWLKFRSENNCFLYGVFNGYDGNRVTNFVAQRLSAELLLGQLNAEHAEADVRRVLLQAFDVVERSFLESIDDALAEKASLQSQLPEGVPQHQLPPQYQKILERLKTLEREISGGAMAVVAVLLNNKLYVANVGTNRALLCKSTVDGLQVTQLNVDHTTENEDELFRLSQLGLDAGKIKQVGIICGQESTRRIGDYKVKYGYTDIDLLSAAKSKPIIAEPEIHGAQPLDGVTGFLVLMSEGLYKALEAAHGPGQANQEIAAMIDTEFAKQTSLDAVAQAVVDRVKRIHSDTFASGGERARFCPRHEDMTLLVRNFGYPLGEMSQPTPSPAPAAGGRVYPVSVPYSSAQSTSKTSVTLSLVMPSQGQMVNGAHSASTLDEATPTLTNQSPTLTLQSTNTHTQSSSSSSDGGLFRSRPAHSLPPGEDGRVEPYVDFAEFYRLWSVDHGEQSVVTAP
Source text: (§1) FIGS. 2A-C: Effect of dsRNAs on the activity of purified recombinant TAK1-D protein. (FIG. 2A) In vitro kinase assay showing the activation of TAK1-D autophosphorylation by siRNA si5. FLAG-tagged TAK1-D and His-tagged TAB1 were coexpressed in Hela cells and purified by immunoprecipitation with anti FLAG antibody. […] Error bars indicate the standard error of 3 experiments.
(§2) To verify if siRNA si5 indeed interacts with TAK1-D directly, the activation of the kinase was studied in vitro using purified proteins. […] To test whether the increased activation of the TAK1-D/TAB1 complex by siRNA si5 is caused by an increased affinity of the RNA molecule to the kinase, binding of radiolabeled siRNAs to immunoprecipitated FLAG tagged TAK1-D was measured. In FIG. 2C the amount of RNA bound to immobilized FLAG-TAK1-D is given.
FLAG-tagged TAK1-D and HIS-tagged TAB1 were co-expressed in HeLa cells and the proteins were purified through immunoprecipitation with an anti-FLAG antibody.

p38 MAP kinase pathway = assay: Activation of the p38 MAP kinase pathway in H460 cells (Western blot); format: cell-based, human; details: for activation of the p38 MAP kinase pathway (phosphorylation of MKK3/6, p38 MAPK): H460 cells, 20 nM RNA, 2-6 h
Source text: Both siRNAs were directed against the mRNA of the same gene TLK1.

TLK1 = TLK1 post-transcriptional silencing in HeLa cells (Western blot); format: cell-based, human; details: 48 h after transfection
Procedure: In order to test whether dsRNA molecules show the same cellular uptake and stability the efficiency of these molecules to post-transcriptionally silence the expression of TLK1 was determined as si6 as well as si5 siRNA are directed against the mRNA of this protein. […] As a loading control the unchanged expression levels of TAK1-A/B and 3-tubulin are shown in the two lower panels.

TAK1-A = assay: Autophosphorylation of the other (long) Tak1 splicing variants in H460 cells; format: cell-based, human; details: siRNA 20 nM
Source text: In contrast only the long form (TAK1-A) is able to activate the NFκB pathway through phosphorylation of IKKα/β.

TAK1-D = target: T2, TAK1-D (Homo sapiens, UniProt O43318); assay: Binding of radiolabeled siRNAs to immobilized FLAG-TAK1-D; design: made in house; details: kinase assay buffer conditions, 3 experiments
T2 sequence (O43318 1-491 isoform O43318-4): T1 sequence (O43318 1-491 isoform O43318-4)
Source text: as §1, §2

H460 cells = assay: Apoptosis in H460 cells (caspase 3 cleavage, PARP cleavage, nuclear morphology); format: cell-based, human
Source text: Cell cycle arrest triggers programmed cell death in many tumor cell lines.
As cell cycle arrest is incompatible with survival in many tumor cell lines the cellular response of H460 cells to the treatment with dsRNA si5 was investigated.
Survival assay and apoptosis scoring.

Substance	activation of NF-κB (EMSA of nuclear protein) (NF-κB)	p38 activation by phosphorylation (p38)	autophosphorylation activity of the TAK1-D/TAB1 complex (TAK1-D/TAB1 complex)	activation of the p38 MAP kinase pathway (phosphorylation of MKK3/6, p38 MAPK) (p38 MAP kinase pathway)	expression level of TLK1 (TLK1)	activating autophosphorylation of the other three splicing variants of Tak1 (TAK1-A)	induced activating phosphorylation of p38 MAPK in cells expressing dominant-negative Tak1-D (K63W) (p38 MAP kinase pathway; H460, adenoviral K63W vs β-galactosidase vector, 20 nM dsRNA 4 h)	activation of the p38 MAP kinase pathway (phosphorylation of MKK3/6, p38 MAPK) (p38 MAP kinase pathway; listed as Si5)	activating phosphorylation of p38 MAP kinase in TAK1-D/K63W transfected cells (p38 MAP kinase pathway; H460 stably transfected with K63W vs wt and vector, 4 h)	amount of RNA bound to immobilized FLAG-TAK1-D (TAK1-D)	cellular apoptotic response with inactivated Tak1-D catalytic activity (H460 cells; H460, adenoviral K63W, 48 h after siRNA)	nuclear morphology, HOECHST 33342 staining (H460 cells; H460 cells, 48 h)	time until PARP cleavage (H460 cells; H460 cells, Western blot)	caspase 3 cleavage (H460 cells; NCI-H460, 24 h after treatment)	fraction of G1 and S phase cells staining positive for cleaved caspase 3 (H460 cells; NCI-H460, 48 h, compared with 24 h)
si6: control 21-mer siRNA against TLK1 mRNA: GGGUGGAAAUGGCUCAAGUtt (SEQ ID NO: 4) / gtCCCACCUUUACCGAGUUCA (SEQ ID NO: 5) (sense GGGUGGAAAUGGCUCAAGUTT; antisense GTCCCACCUUUACCGAGUUCA; chemistry not given here; one strand is listed 3' to 5') [reference compound]	neither si5 nor si6 transfection lead to an activation	not	not	had no effect; also recorded: does not occur; also recorded: No activation	drastically reduce the expression level; also recorded: reduced to almost undetectable levels; also recorded: very significant reduction in the expression of TLK1	–	–	–	–	–	–	–	–	–	–
si5: 21-mer siRNA against TLK1 mRNA: GGCUUUUGACCUUUAUGAAtt (SEQ ID NO: 2) / ttCCGAAAACUGGAAAUACUU (SEQ ID NO: 3) (sense GGCUUUUGACCUUUAUGAATT; antisense TTCCGAAAACUGGAAAUACUU; chemistry not given here; one strand is listed 3' to 5')	neither si5 nor si6 transfection lead to an activation; also recorded: does not activate NF-κB	p38 is activated by phosphorylation	increase in autophosphorylation activity; also recorded: increased the autophosphorylation activity	activation of the p38 MAP kinase pathway; also recorded: able to activate Tak1-D and consecutively p38 MAPK; also recorded: activate the pathway most effectively	drastically reduce the expression level; also recorded: reduced to almost undetectable levels; also recorded: very significant reduction in the expression of TLK1	does not induce activating autophosphorylation	significantly reduced	phosphorylation and activation of MKK3/6 as well as MKK4	very significant reduction; also recorded: significantly reduced	significantly greater; also recorded: increased binding	significantly reduced	typical apoptotic chromatin condensation and fragmentation	≤ 24 h	cells from the G1 and the S phase of the cell cycle show caspase 3 cleavage	higher
